The values below come from patent publication US20260365642A1, “ANTIPARASITIC COMPOUNDS” (Animol Discovery, Inc., priority 2023, published 2026).

The assay has as its system Dirofilaria immitis L1 larvae. Nature of the assay: Screening against microfilaria (L1 larvae) of Dirofilaria immitis, survival/motility. Type of assay: in vivo. The conditions noted are these: 72 h, read-out: Ranked D. immitis L1 MED Activity. On the procedure: Example 44. Screening of Compounds Against Microfilaria of Dirofilaria immitis
To evaluate the efficacy of compounds of the disclosure against Dirofilaria immitis, L1 stage larvae were exposed to various concentrations of the compounds to determine survival or paralysis of the larvae. Results are reported as the minimum effective dose (MED), defined as the concentration required to eliminate motility.
To perform the assay, microfilaria of Dirofilaria immitis were added to the wells of a microtiter plate containing buffer and the test compounds in DMSO. Microfilaria exposed to DMSO alone served as controls. An assessment was conducted at 72 hours to determine survival of the microfilaria.
As to `CN(CC1CN(S(C)(=O)=O)CCO1)c1cc(N2CCOC3(CCCCC3)C2)nc(C(F)(F)F)n1` (racemic) [Compound 4, (R) and (S)-N-methyl-N-((4-(methylsulfonyl)morpholin-2-yl)methyl)-6-(1-oxa-4-azaspiro[5.5]undecan-4-yl)-2-(trifluoromethyl)pyrimidin-4-amine], the minimal effective concentration is under 30000 µM.

On to `CN(C[C@H]1CN(S(C)(=O)=O)CCO1)c1cc(N2CCCC3(CCCCC3)C2)nc(C(F)(F)F)n1` [Compound 1, (S)-N-methyl-N-((4-(methylsulfonyl)morpholin-2-yl)methyl)-6-(2-azaspiro[5.5]undecan-2-yl)-2-(trifluoromethyl)pyrimidin-4-amine], for which the minimal effective concentration is under 10000 µM.

Take `CN(Cc1ccc(S(=O)(=O)N(C)C)cc1)c1cc(N2CCCC3(CCCCC3)C2)nc(C(F)(F)F)n1` [Compound 5, 4-(((6-(2-azaspiro[5.5]undecan-2-yl)-2-(trifluoromethyl)pyrimidin-4-yl)(methyl)amino)methyl)-N,N-dimethylbenzenesulfonamide]: the minimal effective concentration was over 100000 µM. As for `CN(Cc1ccc(S(C)(=O)=O)cc1)c1cc(N2CCCC3(CCCCC3)C2)nc(C(F)(F)F)n1` [Compound 6, N-methyl-N-(4-(methylsulfonyl)benzyl)-6-(2-azaspiro[5.5]undecan-2-yl)-2-(trifluoromethyl)pyrimidin-4-amine], the minimal effective concentration was over 100000 µM.

`CN(c1cc(N2CCCC3(CCCCC3)C2)nc(C(F)(F)F)n1)C1CC2(CC(NS(C)(=O)=O)C2)C1` (stereo not drawn) [Compound 7, N-(6-((6-(2-azaspiro[5.5]undecan-2-yl)-2-(trifluoromethyl)pyrimidin-4-yl)(methyl)amino)spiro[3.3]heptan-2-yl)methanesulfonamide]: the minimal effective concentration was over 100000 µM. Under `CN(CCOc1ccccc1)c1cc(N2CCCC3(CCCCC3)C2)nc(C(F)(F)F)n1` [Compound 8, N-methyl-N-(2-phenoxyethyl)-6-(2-azaspiro[5.5]undecan-2-yl)-2-(trifluoromethyl)pyrimidin-4-amine] stands over 100000 µM. Under `CN(CC1CCN(S(C)(=O)=O)C1)c1cc(N2CCCC3(CCCCC3)C2)nc(C(F)(F)F)n1` (stereo not drawn) [Compound 9, N-methyl-N-((1-(methylsulfonyl)pyrrolidin-3-yl)methyl)-6-(2-azaspiro[5.5]undecan-2-yl)-2-(trifluoromethyl)pyrimidin-4-amine] stands under 30000 µM; under `CN(C)S(=O)(=O)N1CC2(CN(c3cc(N4CCCC5(CCCCC5)C4)nc(C(F)(F)F)n3)C2)C1` [Compound 10, 6-(6-(2-azaspiro[5.5]undecan-2-yl)-2-(trifluoromethyl)pyrimidin-4-yl)-N,N-dimethyl-2,6-diazaspiro[3.3]heptane-2-sulfonamide], over 100000 µM.

As for `CN(CCN1CCCS1(=O)=O)c1cc(N2CCCC3(CCCCC3)C2)nc(C(F)(F)F)n1` [Compound 11, 2-(2-((6-(2-azaspiro[5.5]undecan-2-yl)-2-(trifluoromethyl)pyrimidin-4-yl)(methyl)amino)ethyl)isothiazolidine 1,1-dioxide], the minimal effective concentration was under 30000 µM.

`CS(=O)(=O)N1CC2(CC(Nc3cc(N4CCCC5(CCCCC5)C4)nc(C(F)(F)F)n3)C2)C1` [Compound 12, N-(6-(2-azaspiro[5.5]undecan-2-yl)-2-(trifluoromethyl)pyrimidin-4-yl)-2-(methylsulfonyl)-2-azaspiro[3.3]heptan-6-amine]: the minimal effective concentration is over 100000 µM.

For `CN(CC1CN(S(C)(=O)=O)C1)c1cc(N2CCCC3(CCCCC3)C2)nc(C(F)(F)F)n1` [Compound 13, N-methyl-N-((1-(methylsulfonyl)azetidin-3-yl)methyl)-6-(2-azaspiro[5.5]undecan-2-yl)-2-(trifluoromethyl)pyrimidin-4-amine], the minimal effective concentration was under 10000 µM. With `CN(CC1CCCN(S(C)(=O)=O)C1)c1cc(N2CCCC3(CCCCC3)C2)nc(C(F)(F)F)n1` (stereo not drawn) [Compound 14, N-methyl-N-((1-(methylsulfonyl)piperidin-3-yl)methyl)-6-(2-azaspiro[5.5]undecan-2-yl)-2-(trifluoromethyl)pyrimidin-4-amine], the minimal effective concentration was over 100000 µM. On to `CS(=O)(=O)N1CCOC(CNc2cc(N3CCCC4(CCCCC4)C3)nc(C(F)(F)F)n2)C1` (stereo not drawn) [Compound 15, N-((4-(methylsulfonyl)morpholin-2-yl)methyl)-6-(2-azaspiro[5.5]undecan-2-yl)-2-(trifluoromethyl)pyrimidin-4-amine], for which the minimal effective concentration is under 10000 µM. Turning to `CN(CC1CN(S(C)(=O)=O)CCO1)c1cc(N2CCOC3(CCCC3)C2)nc(C(F)(F)F)n1` (stereo not drawn) [Compound 16, N-methyl-N-((4-(methylsulfonyl)morpholin-2-yl)methyl)-6-(6-oxa-9-azaspiro[4.5]decan-9-yl)-2-(trifluoromethyl)pyrimidin-4-amine], the minimal effective concentration is under 30000 µM. Under `CN(CC1CN(S(C)(=O)=O)CCO1)c1cc(N2CC3CCC(C2)O3)nc(C(F)(F)F)n1` (stereo not drawn) [Compound 17, 6-(8-oxa-3-azabicyclo[3.2.1]octan-3-yl)-N-methyl-N-((4-(methylsulfonyl)morpholin-2-yl)methyl)-2-(trifluoromethyl)pyrimidin-4-amine] stands over 100000 µM; under `CN(CC1CN(S(C)(=O)=O)CCO1)c1cc(N2CC3CC(C2)O3)nc(C(F)(F)F)n1` (stereo not drawn) [Compound 18, 6-(6-oxa-3-azabicyclo[3.1.1]heptan-3-yl)-N-methyl-N-((4-(methylsulfonyl)morpholin-2-yl)methyl)-2-(trifluoromethyl)pyrimidin-4-amine], over 100000 µM.

Regarding `CS(=O)(=O)N1CCOC(CN(Cc2ccccc2)c2cc(N3CCOC4(CCCCC4)C3)nc(C(F)(F)F)n2)C1` (stereo not drawn) [Compound 19, N-benzyl-N-((4-(methylsulfonyl)morpholin-2-yl)methyl)-6-(1-oxa-4-azaspiro[5.5]undecan-4-yl)-2-(trifluoromethyl)pyrimidin-4-amine], the minimal effective concentration is over 100000 µM.

Regarding `CCN(CC1CN(S(C)(=O)=O)CCO1)c1cc(N2CCOC3(CCCCC3)C2)nc(C(F)(F)F)n1` (stereo not drawn) [Compound 20, N-ethyl-N-((4-(methylsulfonyl)morpholin-2-yl)methyl)-6-(1-oxa-4-azaspiro[5.5]undecan-4-yl)-2-(trifluoromethyl)pyrimidin-4-amine], the minimal effective concentration is under 10000 µM.

Regarding `CN(CC1CN(S(C)(=O)=O)CCO1)c1cc(N2CCOC3(CCC(F)(F)CC3)C2)nc(C(F)(F)F)n1` (stereo not drawn) [Compound 21, 6-(9,9-difluoro-1-oxa-4-azaspiro[5.5]undecan-4-yl)-N-methyl-N-((4-(methylsulfonyl)morpholin-2-yl)methyl)-2-(trifluoromethyl)pyrimidin-4-amine], the minimal effective concentration was under 10000 µM. Consider `CN(CC1CN(S(C)(=O)=O)CCC1(F)F)c1cc(N2CCC(F)(F)C3(CCCCC3)C2)nc(C(F)(F)F)n1` (stereo not drawn) [Compound 22, N-((4,4-difluoro-1-(methylsulfonyl)piperidin-3-yl)methyl)-6-(5,5-difluoro-2-azaspiro[5.5]undecan-2-yl)-N-methyl-2-(trifluoromethyl)pyrimidin-4-amine], for which the minimal effective concentration is over 100000 µM. Under `CN(CC1CN(S(C)(=O)=O)CCO1)c1cc(N2CCC(F)(F)C3(CCCCC3)C2)nc(C(F)(F)F)n1` (stereo not drawn) [Compound 23, 6-(5,5-difluoro-2-azaspiro[5.5]undecan-2-yl)-N-methyl-N-((4-(methylsulfonyl)morpholin-2-yl)methyl)-2-(trifluoromethyl)pyrimidin-4-amine] stands under 10000 µM; under `CN(CC1CN(S(C)(=O)=O)CCC1(F)F)c1cc(N2CCOC3(CCCCC3)C2)nc(C(F)(F)F)n1` (stereo not drawn) [Compound 24, N-((4,4-difluoro-1-(methylsulfonyl)piperidin-3-yl)methyl)-N-methyl-6-(1-oxa-4-azaspiro[5.5]undecan-4-yl)-2-(trifluoromethyl)pyrimidin-4-amine], under 10000 µM; under `CN(CC1CN(S(C)(=O)=O)CCS1(=O)=O)c1cc(N2CCOC3(CCCCC3)C2)nc(C(F)(F)F)n1` (stereo not drawn) [Compound 25, 2-(((6-(1-oxa-4-azaspiro[5.5]undecan-4-yl)-2-(trifluoromethyl)pyrimidin-4-yl)(methyl)amino)methyl)-4-(methylsulfonyl)thiomorpholine 1,1-dioxide], over 100000 µM.

For `CN(CC1CN(S(C)(=O)=O)CCS1)c1cc(N2CCOC3(CCCCC3)C2)nc(C(F)(F)F)n1` (stereo not drawn) [Compound 26, N-methyl-N-((4-(methylsulfonyl)thiomorpholin-2-yl)methyl)-6-(1-oxa-4-azaspiro[5.5]undecan-4-yl)-2-(trifluoromethyl)pyrimidin-4-amine], the minimal effective concentration was under 30000 µM.

Take `CN(CC1CN(S(C)(=O)=O)CCO1)c1cc(N2CCS(=O)(=O)C3(CCCCC3)C2)nc(C(F)(F)F)n1` (stereo not drawn) [Compound 27, 4-(6-(methyl((4-(methylsulfonyl)morpholin-2-yl)methyl)amino)-2-(trifluoromethyl)pyrimidin-4-yl)-1-thia-4-azaspiro[5.5]undecane 1,1-dioxide]: the minimal effective concentration was under 30000 µM. For `CN(CC1CN(S(C)(=O)=O)CCO1)c1cc(N2CCSC3(CCCCC3)C2)nc(C(F)(F)F)n1` (stereo not drawn) [Compound 28, N-methyl-N-((4-(methylsulfonyl)morpholin-2-yl)methyl)-6-(1-thia-4-azaspiro[5.5]undecan-4-yl)-2-(trifluoromethyl)pyrimidin-4-amine], the minimal effective concentration is under 10000 µM. As for `CN(CC1CN(S(C)(=O)=O)CCS1(=O)=O)c1cc(N2CCS(=O)(=O)C3(CCCCC3)C2)nc(C(F)(F)F)n1` (stereo not drawn) [Compound 29, 4-(6-(methyl((4-(methylsulfonyl)-1,1-dioxidothiomorpholin-2-yl)methyl)amino)-2-(trifluoromethyl)pyrimidin-4-yl)-1-thia-4-azaspiro[5.5]undecane 1,1-dioxide], the minimal effective concentration is under 30000 µM.
